{"source": "patent US20230167081A1", "about": "“5-AMINO-2-PIPERIDINON-3-YL-1-OXOISOINDOLINE DERIVATIVES FOR DEGRADATION OF IKZF2 DEGRADERS” (President and Fellows of Harvard College, priority 2020, published 2023)", "key": {"IKZF1": {"molecular_target": "T1, IKZF1 (Homo sapiens, UniProt Q13422)", "T1 construct": "endogenous in cells; host or cells: MOLM13", "T1 sequence (Q96SW2 whole entry partner)": "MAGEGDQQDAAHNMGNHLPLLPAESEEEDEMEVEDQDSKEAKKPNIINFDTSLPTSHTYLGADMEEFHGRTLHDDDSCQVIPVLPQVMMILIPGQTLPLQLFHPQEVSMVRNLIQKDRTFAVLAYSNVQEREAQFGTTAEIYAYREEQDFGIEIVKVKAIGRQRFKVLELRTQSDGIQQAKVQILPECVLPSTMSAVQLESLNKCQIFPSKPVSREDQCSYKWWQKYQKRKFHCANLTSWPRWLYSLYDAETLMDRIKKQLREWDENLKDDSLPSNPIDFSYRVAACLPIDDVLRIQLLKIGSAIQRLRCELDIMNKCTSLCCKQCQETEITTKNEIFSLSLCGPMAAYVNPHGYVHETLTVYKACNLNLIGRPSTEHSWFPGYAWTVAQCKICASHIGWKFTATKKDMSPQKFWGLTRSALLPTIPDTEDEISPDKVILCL", "T1 sequence (Q16531 whole entry partner)": "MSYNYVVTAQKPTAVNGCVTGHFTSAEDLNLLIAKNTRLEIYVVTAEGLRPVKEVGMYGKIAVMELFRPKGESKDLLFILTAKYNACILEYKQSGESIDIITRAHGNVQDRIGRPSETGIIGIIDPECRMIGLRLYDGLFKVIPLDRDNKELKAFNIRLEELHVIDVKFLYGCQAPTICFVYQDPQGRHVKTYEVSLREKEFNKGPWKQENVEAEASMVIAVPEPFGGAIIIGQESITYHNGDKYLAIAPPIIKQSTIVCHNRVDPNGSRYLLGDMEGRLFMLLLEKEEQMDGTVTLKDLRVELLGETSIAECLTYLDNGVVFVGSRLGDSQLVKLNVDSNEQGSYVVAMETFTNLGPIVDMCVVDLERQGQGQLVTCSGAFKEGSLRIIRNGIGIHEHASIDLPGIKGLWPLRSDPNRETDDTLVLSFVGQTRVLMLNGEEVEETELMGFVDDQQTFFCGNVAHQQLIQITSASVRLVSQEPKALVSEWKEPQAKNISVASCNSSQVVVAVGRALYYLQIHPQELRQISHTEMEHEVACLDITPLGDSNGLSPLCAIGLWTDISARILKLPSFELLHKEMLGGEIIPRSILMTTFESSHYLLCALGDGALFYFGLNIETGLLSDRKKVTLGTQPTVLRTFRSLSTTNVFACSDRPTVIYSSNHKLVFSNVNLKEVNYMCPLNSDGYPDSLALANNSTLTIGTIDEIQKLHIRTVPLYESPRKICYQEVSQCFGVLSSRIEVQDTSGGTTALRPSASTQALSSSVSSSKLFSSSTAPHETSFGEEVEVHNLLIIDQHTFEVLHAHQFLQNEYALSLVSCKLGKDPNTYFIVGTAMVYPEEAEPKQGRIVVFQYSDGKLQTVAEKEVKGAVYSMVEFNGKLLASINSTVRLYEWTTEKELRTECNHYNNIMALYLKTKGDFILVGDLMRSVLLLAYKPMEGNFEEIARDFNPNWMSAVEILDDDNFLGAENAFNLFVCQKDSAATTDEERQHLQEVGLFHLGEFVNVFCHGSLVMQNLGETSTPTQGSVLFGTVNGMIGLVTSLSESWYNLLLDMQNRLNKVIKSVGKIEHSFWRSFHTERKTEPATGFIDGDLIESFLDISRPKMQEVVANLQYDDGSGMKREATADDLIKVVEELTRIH", "T1 sequence (Q13422 whole entry)": "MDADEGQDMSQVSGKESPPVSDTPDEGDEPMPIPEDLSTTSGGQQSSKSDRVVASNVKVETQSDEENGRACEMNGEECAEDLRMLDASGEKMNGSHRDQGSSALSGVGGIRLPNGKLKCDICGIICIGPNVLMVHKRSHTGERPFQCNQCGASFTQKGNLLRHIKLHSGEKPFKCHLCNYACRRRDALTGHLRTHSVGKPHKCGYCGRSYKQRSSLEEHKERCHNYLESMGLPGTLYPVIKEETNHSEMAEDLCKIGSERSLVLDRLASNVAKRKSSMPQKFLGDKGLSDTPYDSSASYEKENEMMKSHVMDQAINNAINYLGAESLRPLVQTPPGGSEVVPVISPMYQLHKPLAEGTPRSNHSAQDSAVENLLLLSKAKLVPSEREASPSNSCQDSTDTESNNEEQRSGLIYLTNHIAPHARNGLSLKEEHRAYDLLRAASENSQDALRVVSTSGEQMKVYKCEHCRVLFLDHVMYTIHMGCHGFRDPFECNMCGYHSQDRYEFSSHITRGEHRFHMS", "assay": "Western blot, IKZF1 levels in MOLM13 cells", "assay_type": "cell-based", "description": "DEG-37 is also a suitable lead compound for IKZF2 targeted degradation (FIG. 4)."}, "MOLM13 cells [1]": {"system": "MOLM13 cells", "assay": "MTT cell viability assay in MOLM13 cells", "assay_type": "cell-based, human", "method": "The effect of DEG-7 and DEG-35 were evaluated on cell viability in MOLM13 cells."}, "IKZF2 [2]": {"molecular_target": "T2, IKZF2 (Homo sapiens, UniProt Q9UKS7)", "assay": "Western blot, IKZF2 degradation in MOLM13 cells", "assay_type": "cell-based", "set-up": "endogenous in cells; host or cells: MOLM13", "method": "(§1) To determine the selectivity of DEG-7 and DEG-35, blotting was done for other known IMiD neo-substrates (FIG. 1A). DEG-35 degraded casein kinase 1α (CK1α), a known substrate of lenalidomide, as well as the translation termination factor GSPT1, a substrate of the IMiD CC-885, at 25 μM concentrations. To investigate whether DEG-35 could degrade IKZF2 at lower concentrations, MOLM13 cells were treated with a concentration gradient. At the lowest concentration tested (5 nM), IKZF2 and CK1a degraded, while GSPT1 levels were unperturbed."}, "GSPT1": {"molecular_target": "GSPT1 (Homo sapiens, UniProt P15170+Q96SW2)", "sequence (P15170 whole entry)": "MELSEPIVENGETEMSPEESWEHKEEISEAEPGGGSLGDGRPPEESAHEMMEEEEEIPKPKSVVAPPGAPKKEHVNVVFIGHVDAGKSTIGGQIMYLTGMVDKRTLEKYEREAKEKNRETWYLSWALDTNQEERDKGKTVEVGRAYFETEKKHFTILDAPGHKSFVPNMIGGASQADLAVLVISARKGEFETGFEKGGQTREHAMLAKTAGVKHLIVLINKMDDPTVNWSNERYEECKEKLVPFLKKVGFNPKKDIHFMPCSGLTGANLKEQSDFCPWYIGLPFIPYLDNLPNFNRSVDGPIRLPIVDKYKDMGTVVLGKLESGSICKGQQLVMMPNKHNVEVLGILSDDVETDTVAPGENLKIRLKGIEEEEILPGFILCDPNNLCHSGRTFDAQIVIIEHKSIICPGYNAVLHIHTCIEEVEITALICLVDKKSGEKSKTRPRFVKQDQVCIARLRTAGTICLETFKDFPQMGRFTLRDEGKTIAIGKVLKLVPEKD", "sequence (Q96SW2 whole entry)": "as the sequence (Q96SW2 whole entry partner) above", "sequence (Q16531 whole entry partner)": "as the sequence (Q16531 whole entry partner) above", "assay": "Western blot, GSPT1 levels in MOLM13 cells", "assay_type": "cell-based", "set-up": "endogenous in cells; host or cells: MOLM13", "method": "as §1"}, "NOMO1": {"system": "NOMO1", "assay": "Cell viability, antiproliferation, apoptosis, differentiation in NOMO1 cells", "assay_type": "cell-based"}, "KASUMI": {"system": "KASUMI", "assay": "Cell viability, antiproliferation, apoptosis, differentiation in KASUMI cells", "assay_type": "cell-based"}, "MOLM13 cells [3]": {"system": "MOLM13 cells", "assay": "Apoptosis markers in MOLM13 cells", "assay_type": "cell-based, human"}, "MOLM13 cells [4]": {"system": "MOLM13 cells", "assay": "Differentiation in MOLM13 cells", "assay_type": "cell-based, human"}, "[5]": {"system": "over 800 cancer cell lines", "assay": "PRISM screen against over 800 cancer cell lines", "assay_type": "cell-based", "settings": "MOLM13 cell line", "description": "DEG-7 and DEG-35 were submitted to the Broad Institute's PRISM (Profiling Relative Inhibition Simultaneously in Mixtures) screen to be evaluated against over 800 cancer cell lines. The initial screen identified cancer cell lines that were responsive to DEG-7 and DEG-35 treatment. […] Several diffuse large B-cell lymphoma (DLBCL), acute myeloid leukemia (AML), and T-cell acute lymphoblastic leukemia (T-ALL) cell lines responded to DEG-35 in a dose-dependent manner. Of the top ten cell lines that responded to DEG-35 treatment, three were DLBCL cell lines, one was an AML cell line (MOLM13), and one was a T-ALL cell line."}, "IKZF2 [6]": {"molecular_target": "T2, IKZF2", "settings": "background statement; cited from earlier work"}}, "note": "Entries after “also recorded” stand apart in the source; their conditions may differ. Like-named read-outs stand apart in the source and are kept apart here.", "data": [{"smiles": "O=C1CCC(N2Cc3cc(NCc4ccc5oc6ccccc6c5c4)ccc3C2=O)C(=O)N1", "note": "(stereo not drawn) [DEG-37, 3-(5-((dibenzo[b,d]furan-2-ylmethyl)amino)-1-oxoisoindolin-2-yl)piperidine-2,6-dione]", "values": [{"measurement": "effect on IKZF1 levels", "setting": "IKZF1", "value": "minimally effect"}, {"measurement": "antiproliferative activity (in words)", "setting": "MOLM13 cells [1]; MOLM13 / AML cells", "value": "milder antiproliferative effects; also recorded: possesses antiproliferative effects"}, {"measurement": "IKZF2 degradation", "setting": "IKZF2 [2]; 25 μM", "value": "selectively degrade IKZF2; also recorded: degrades IKZF2"}, {"measurement": "effect on GSPT1 levels", "setting": "GSPT1", "value": "minimally effect"}]}, {"smiles": "COc1ccc2cc(CNc3ccc4c(c3)CN(C3CCC(=O)NC3=O)C4=O)ccc2c1", "note": "(stereo not drawn) [DEG-7, 3-(5-(((6-methoxynaphthalen-2-yl)methyl)amino)-1-oxoisoindolin-2-yl)piperidine-2,6-dione]", "values": [{"measurement": "IC50", "setting": "MOLM13 cells [1]; MOLM13 cells", "value": 4.5, "unit": "µM"}, {"measurement": "effect on cell viability, antiproliferation, apoptosis, or differentiation", "setting": "NOMO1", "value": "no observed effect"}, {"measurement": "effect on cell viability, antiproliferation, apoptosis, or differentiation", "setting": "KASUMI", "value": "no observed effect"}, {"measurement": "induction of apoptosis markers", "setting": "MOLM13 cells [3]", "value": "induced apoptosis markers"}, {"measurement": "induction of differentiation", "setting": "MOLM13 cells [4]", "value": "induced differentiation; also recorded: more efficient at inducing differentiation than DEG-35"}, {"measurement": "sensitivity of MOLM13 in PRISM screen", "setting": "[5]", "value": "sensitive"}, {"measurement": "IKZF2 degradation", "setting": "IKZF2 [2]; analog screening, concentration not given", "value": "robust IKZF2 degradation; also recorded: potent degraders of IKZF2"}]}, {"smiles": "Nc1cccc2c1CN(C1CCC(=O)NC1=O)C2=O", "note": "(stereo not drawn) [lenalidomide]", "values": [{"measurement": "IKZF2 degradation", "setting": "IKZF2 [6]", "value": "not degraders of IKZF2"}]}]}
